Source: patent US11117939B2, “Polypeptides and antibodies to treat skin conditions associated with overproduction of sebum” (University of Sasketchewan, priority 2015, dated 2021)

System: SZ95 sebocytes
Test: Detection of lipids (nile red fluorescence) in SZ95 sebocytes
Assay type: cell-based, human
Details: for production of neutral (sebaceous) lipids: 24 vs 48 hours
Description: C., Seltmann, H., Neitzel, H. & Orfanos, C. E. (1999) J. Invest. Dermatol. 113, 1011-1020], were maintained in Sebomed Basal Medium (Biochrom, Berlin) supplemented with 5 ng/ml human epidermal growth factor (Sigma), 10% heat inactivated FCS (Biochrom GmbH, Berlin, Germany), 50 ug/ml gentamicin (GIBCO/BRL), and 1 mM Ca2+, in a humidified atmosphere of 5% CO2 at 37° C. Shortly before the experiments were performed, BSA-medium [constituted of Sebomed Basal Medium supplemented with 1 mg/ml fatty acid-free BSA (Boehringer Mannheim), 1 mM Ca2+, and 10^-6 M linoleic acid (Sigma)] or Sebomed Complete Medium (Biochrom) was added to the cells. The SZ95 human sebocytes used for the experiments were between passages 31 and 35. The cells were subcultured at 60-70% confluence. The cultures were maintained at 37° C. in a humidified 5% CO2 incubator and the medium was replaced every 2-3 days.
The cells were cultured in 96-well tissue culture plates at a density of 2,000 cells per well for 2 days. The wells were then washed with PBS, and Sebomed Complete Medium was added. After 2 days, the medium was harvested, and fresh medium without or with INDIP peptide (SEQ ID NO: 2) at a concentration of 0, 0.1, 1, 10, or 20 μM in the presence and absence of Linoleic acid (5×10^−5 and 10^−4 M) and Testosterone (2×10^−8 M) was given to the cells. The supernatants were harvested 24 or 48 h later; the wells were washed twice with PBS, and 100 μl of a 10 μg/ml nile red solution in PBS was added to each well. 10 uM of scrambled INDIP peptide (i.e. a scrambled version of SEQ ID NO: 2) was used as the negative control peptide. The plates were then incubated at 37° C. for 30 min, and the released fluorescence was read on a Molecular Devices SPECTRAmax Gemini spectrofluorometer. The results are presented as percentages of the absolute fluorescence units in comparison with the controls, using 485 nm excitation and 565 nm emission filters for neutral lipids and 540 nm excitation and 620 nm emission filters for polar lipids. Experiments were performed in triplicate, with 10 wells evaluated for each data point in each experiment.

YGRKKRRQRRRGEPHKFKREW ((1)..(11) Tat; (12)..(21) Insig-1) [INDIP peptide (SEQ ID NO: 2), PTD-fused (TAT protein transduction domain) Insig-1 ubiquitination region peptide]
production of neutral (sebaceous) lipids (10 μM peptide, occasionally, absence or presence of linoleic acid and testosterone): significantly reduced | production of neutral (sebaceous) lipids (20 μM peptide, greater effect as time progressed, absence or presence of linoleic acid and testosterone): significantly reduced | sebaceous differentiation (all conditions tested, with and without linoleic acid and testosterone): able to reduce | lipid production (application to SZ95 sebocytes in vitro): Significant Reduction | polar lipids (membrane synthesis, synthetic activity of the cells) (concomitant with the neutral lipid reduction, absence or presence of linoleic acid and testosterone): concomitant reduction
